System: 301 cancer cell lines from different tumor types (OncoPanel; HD Biosciences)
Experiment: 2D cell viability inhibition assay (CellTiter-Glo) in cancer cell line panel
Type: cell-based
Conditions: Homo sapiens
Method: In a larger screening study, compound 1 was evaluated across a broad cancer cell line panel (OncoPanel; HD Biosciences) composed of 301 cancer cell lines from different tumor types.
2D cell viability inhibition assays were performed in multiwell plates seeded with cells from the panel. After seeding, the plates were cultured overnight in a humidified incubator at 37° C. to promote adherence. Assays were initiated in individual wells by adding either DMSO as a vehicle control, growth media as a blank, or serially diluted compound 1 (10 μM to 0.0005 μM with 1:3 serial dilution). Cultures were incubated for 168 hours after which the number of viable cells in each test well was assessed using the CellTiter-Glo® Luminescent Cell Viability Assay. Luminescence readouts were performed using an EnVision® Multilabel Reader and the compound 1 readouts were normalized to the DMSO control readouts, expressed as a percent of the control. Outliers were flagged out by visual inspection. Percent of control was plotted against the corresponding compound 1 concentration and the absolute IC50 value was determined using four-parameter logistic non-linear regression as the concentration where inhibition was 50% of the control. For maximum inhibition <50%, the absolute IC50 was reported as >10. In addition to EC50 and IC50, AUC was determined and was normalized to the area corresponding to theoretical no-inhibition (the rectangular area defined by the compound dose range and 0 to 100 in y). Emax was recorded as the minimum in y with the compound dose range. For those cell lines where Emax>40, EC50 was manually set to 10 μM. A hierarchical clustering algorithm based on Euclidean distance between the standardized input values and “Ward.D” method as implemented in R hclust function was used to visualize the compound 1 cellular potency data. The sensitive/moderate/resistant calls for each cell line was determined by visually inspecting the resulting clustering dendrogram. All the analyses were done in R Core Team.

[1] = Detroit 562, DETROIT562 cell line
[2] = Granta-519, GRANTA519 cell line
[3] = KARPAS-422, KARPAS422 cell line

CC(C)c1ccc(N(C)c2ccc3c(c2)OCC[C@H]3CNc2cnccc2C(=O)O)cc1 [Compound 1, 3-({[(4R)-7-{methyl[4-(propan-2-yl)phenyl]amino}-3,4-dihydro-2H-1-benzopyran-4-yl]methyl}amino)pyridine-4-carboxylic acid]
IC50 (Calu-6, CALU6 cell line): 14.9 nM
EC50 (Caov-3, CAOV3 cell line): 5.25 nM
IC50 (Caov-3, CAOV3 cell line): 6.47 nM
IC50 (Capan-2, 168 h, CAPAN2, pancreas, ductal carcinoma, 168 hours): > 10000 nM
EC50 (DLD-1, DLD1 cell line): 1.47 nM
IC50 (DLD-1, DLD1 cell line): 2.53 nM
IC50 (DMS-53, 168 h, DMS53, lung, small cell carcinoma, 168 hours): > 10000 nM
EC50 (DMS-79, DMS79 cell line): 1.28 nM
IC50 (DMS-79, DMS79 cell line): 3.47 nM
IC50 (DMS-153, DMS153 cell line): > 10000 nM
EC50 (DMS-273, DMS273 cell line): 16.3 nM
IC50 (DMS-273, DMS273 cell line): 22.2 nM
EC50 (DU-145, DU145 cell line): 16.6 nM
IC50 (DU-145, DU145 cell line): 17.7 nM
EC50 (DV-90, DV90 cell line): 5.36 nM
IC50 (DV-90, DV90 cell line): 7.36 nM
IC50 (Daoy, 168 h, central nervous system, NS): > 10000 nM
EC50 (Daudi, DAUDI cell line): 13.4 nM
IC50 (Daudi, DAUDI cell line): 14.9 nM
EC50 [1]: 10.4 nM
IC50 [1]: 16.7 nM
EC50 (FTC-133, FTC133 cell line): 4.28 nM
IC50 (FTC-133, FTC133 cell line): 7.49 nM
IC50 (G-361, 168 h, G361, skin, NS, 168 hours): > 10000 nM
EC50 (G-401, G401 cell line): 4.39 nM
IC50 (G-401, G401 cell line): 4.45 nM
EC50 (GI-1, GI1 cell line): 295 nM
IC50 (GI-1, GI1 cell line): 287 nM
EC50 [2]: 14.9 nM
IC50 [2]: 17.6 nM
IC50 (HCC38, 168 h, HCC38, breast, ductal carcinoma, 168 hours): > 10000 nM
EC50 (HCC70, HCC70 cell line): 8.56 nM
IC50 (HCC70, HCC70 cell line): 11 nM
EC50 (HCC78, HCC78 cell line): 12.7 nM
IC50 (HCC78, HCC78 cell line): 23.9 nM
EC50 (HCC95, HCC95 cell line): 3.34 nM
IC50 (HCC95, HCC95 cell line): 4.4 nM
IC50 (HCC827, 168 h, HCC827, lung, adenocarcinoma, 168 hours): > 10000 nM
IC50 (HCC1143, HCC1143 cell line): > 10000 nM
EC50 (HCC1187, HCC1187 cell line): 3.1 nM
IC50 (HCC1187, HCC1187 cell line): 6.51 nM
IC50 (HCC1419, 168 h, HCC1419, breast, ductal carcinoma, 168 hours): > 10000 nM
IC50 (HCC1428, 168 h, HCC1428, breast, NS, 168 hours): > 10000 nM
EC50 (HCC1599, HCC1599 cell line): 3.82 nM
IC50 (HCC1599, HCC1599 cell line): 5.64 nM
EC50 (HCC1806, HCC1806 cell line): 5.13 nM
IC50 (HCC1806, HCC1806 cell line): 13 nM
IC50 (HCC1937, 168 h, HCC1937, breast, ductal carcinoma, 168 hours): > 10000 nM
IC50 (HCC1954, HCC1954 cell line): 40.6 nM
IC50 (HCC2935, HCC2935 cell line): > 10000 nM
EC50 (HCT-15, HCT15 cell line): 1.47 nM
IC50 (HCT-15, HCT15 cell line): 1.79 nM
EC50 (HCT-116, HCT116 cell line): 4.99 nM
IC50 (HCT-116, HCT116 cell line): 20.4 nM
EC50 (HEL, HEL cell line): 3.6 nM
IC50 (HEL, HEL cell line): 11.7 nM
EC50 (HL-60, HL60 cell line): 8.12 nM
IC50 (HL-60, HL60 cell line): 9.32 nM
EC50 (HLE, HLE cell line): 10.4 nM
IC50 (HLE, HLE cell line): 11.3 nM
EC50 (HMCB, HMCB cell line): 0.815 nM
IC50 (HMCB, HMCB cell line): 11.1 nM
EC50 (HPAC, HPAC cell line): 2.38 nM
IC50 (HPAC, HPAC cell line): 3.93 nM
EC50 (HSC-2, HSC2 cell line): 5.09 nM
IC50 (HSC-2, HSC2 cell line): 7.99 nM
IC50 (HSC-3, HSC3 cell line): 60.3 nM
EC50 (HSC-4, HSC4 cell line): 4.33 nM
IC50 (HSC-4, HSC4 cell line): 6.95 nM
EC50 (HT55, HT55 cell line): 12.7 nM
IC50 (HT55, HT55 cell line): 14.2 nM
EC50 (HT-29, HT29 cell line): 22.8 nM
IC50 (HT-29, HT29 cell line): 37 nM
IC50 (HT-144, 168 h, HT144, skin, NS, 168 hours): > 10000 nM
EC50 (HT-1080, HT1080 cell line): 12.8 nM
IC50 (HT-1080, HT1080 cell line): 14.1 nM
EC50 (HT-1376, HT1376 cell line): 17.9 nM
IC50 (HT-1376, HT1376 cell line): 36.3 nM
EC50 (HepG2, HEPG2 cell line): ≥ 10000 nM
IC50 (HepG2, HEPG2 cell line): 52.1 nM
EC50 (Hs 294T, HS294T cell line): 30.7 nM
IC50 (Hs 294T, HS294T cell line): 66.8 nM
IC50 (Hs 695T, 168 h, HS695T, skin, NS): > 10000 nM
EC50 (Hs-578T, HS578T cell line): 6.9 nM
IC50 (Hs-578T, HS578T cell line): 13.9 nM
EC50 (HuH-1, HUH1 cell line): 10.6 nM
IC50 (HuH-1, HUH1 cell line): 11.8 nM
EC50 (HuTu80, HUTU80 cell line): 4.21 nM
IC50 (HuTu80, HUTU80 cell line): 4.36 nM
EC50 (Huh-7, HUH7 cell line): 12.9 nM
IC50 (Huh-7, HUH7 cell line): 14 nM
IC50 (J82, J82 cell line): > 10000 nM
EC50 (JIMT-1, JIMT1 cell line): 46.6 nM
IC50 (JIMT-1, JIMT1 cell line): 61.9 nM
EC50 (JeKo-1, JEKO1 cell line): 2.31 nM
IC50 (JeKo-1, JEKO1 cell line): 1.8 nM
EC50 (Jurkat, JURKAT cell line): 1.66 nM
IC50 (Jurkat, JURKAT cell line): 1.49 nM
EC50 (K562, K562 cell line): 4.08 nM
IC50 (K562, K562 cell line): 4.56 nM
IC50 (KALS-1, KALS1 cell line): > 10000 nM
EC50 [3]: 5.42 nM
IC50 [3]: 6.53 nM
EC50 (KATO III, KATOIII cell line): 40.4 nM
IC50 (KATO III, KATOIII cell line): 43.8 nM
EC50 (KM12, KM12 cell line): 6.3 nM
IC50 (KM12, KM12 cell line): 7.34 nM
EC50 (KMS-11, KMS11 cell line): 10.9 nM
IC50 (KMS-11, KMS11 cell line): 12.2 nM
EC50 (KNS-62, KNS62 cell line): 12.4 nM
IC50 (KNS-62, KNS62 cell line): 14.9 nM
EC50 (KU-19-19, KU1919 cell line): 8.77 nM
IC50 (KU-19-19, KU1919 cell line): 10.3 nM
